Consider ten compounds from patent US4824996A, “Phospholipase A2 inhibitors” (American Home Products Corporation, priority 1986, dated 1989).

In one assay the target is T1, human platelet PLA2 (Homo sapiens, UniProt P14555).
T1 construct: The PLA2 enriched supernatant fluid is removed; from tissue; host or cells: expired human platelets from the blood bank (acid extract, 10,000 g supernatant)
T1 sequence (P14555 21-144): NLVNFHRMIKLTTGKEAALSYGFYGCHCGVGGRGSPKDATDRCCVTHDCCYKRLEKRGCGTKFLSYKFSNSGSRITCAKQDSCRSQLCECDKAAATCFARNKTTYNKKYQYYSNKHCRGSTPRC
In words: in vitro assay of inhibition of human platelet PLA2 (hydrolysis of [1-14C]oleic acid labelled E. coli membrane phospholipids). In kind it is biochemical. Here is the method:
The ability of the compounds to inhibit the activity of PLA2 enzyme is measured in the following in vitro assay.
(§1) The assay is carried out as follows:
E. coli, cultured to exponential growth, are sedimented for 15 minutes at 10,000 g and resuspended in sterile isotonic saline (1-3 ml). 10-25 μCi [1-^14 C] oleic acid is added to a sterile flask, evaporated by N2 and resolubilized with 0.3 ml 20% fatty acid-free BSA. 75-100 ml of nutrient broth and 1 ml E. coli are then added to each flask and incubated for 2-3 hours at 37° C. [1-^14 C] oleic acid labelled E. coli are then sedimented, suspended in saline and added to fresh nutrient broth and incubated for 1.5 hours at 37° C. to complete [1-^14 C] oleic acid incorporation into the phospholipids. After overnight refrigeration of cultures, E. coli are again sedimented, suspended in saline and autoclaved for 15 minutes at 120° C. E. coli cultures are washed twice with saline (first wash contains 1% BSA) and resuspended in saline. Non-labelled E. coli cultures are also prepared in the same manner. Cell number is determined by measuring the optical density at 550 nm ([…]=1 O.D.). The amount of radioactivity associated with cells is determined by counting a defined volume of cell suspension. The specific activity is subsequently adjusted by adding non-labelled E. coli to yield 2-4×10 cpm per 1×10^10 E. coli. [1-^14 C] arachidonic acid-labelled E. coli are similarly prepared.
Platelet PLA2 Preparation
Expired human platelets from the blood bank are centrifuged for 15 minutes at 200 g to obtain a platelet rich plasma fraction and to remove the red blood cells. Platelets are sedimented for 15 minutes at 2500 g and the plasma is removed before adding cold 0.18N […] (4 ml/unit). Platelets are homogenized, incubated for 1 hour at 4° C., homogenized again and centrifuged for 15 minutes at 10,000 g. The PLA2 enriched supernatant fluid is removed and the amount of protein is determined by the Lowry method. The preparation is divided into various portions and stored at -20° C.
The assay measures the hydrolysis of E. coli membrane phospholipids and the release of free [1-^14 C] oleic acid from the C-2 position of phospholipids by human platelet PLA2. To ice cold 15×100 mm test tubes, the following additions are made: 2,5×10 E. coli (equivalent to 4 nmol phospholipid), 5 mM Ca^++, 100 mM Tris buffer (pH=7.4), 100 μg platelet extract (or an amount to produce 20-30% hydrolysis), drug or vehicle. The final volume is adjusted to 500 μl with water. Mixtures are vortexed and incubated for 30 minutes in a shaking water bath. It should be noted that preliminary experiments are always performed with each new batch of platelets to establish linear hydrolysis of phospholipids with regard to protein concentration and time. The enzyme reaction is stopped by the addition of 3 volumes of CHCl3 to each tube which is vortexed and then centrifuged for 5 minutes at 500 g. The lower CHCl3 /CH3 OH phase is removed and evaporated under N. The dried residue is redissolved in 50 μl CHCl3 :CH3 OH (9:1 v/v), spotted on aluminum-backed chromatographic plates and developed in a solvent system consisting of petroleum ether:diethyl ether:acetic acid (80:20:1). Free fatty acid ([1-^14 C]oleic acid) and [1-^14 C]oleic acid labeled phospholipids are visualized with exposure to iodine vapors. Radioactive areas that cochromatographed with authentic oleic acid and phospholipid standards are cut out and placed in a scintillation vial. One ml CH3 OH and 10 ml Hydrofluor are added to each cut strip and radioactivity is determined by liquid scintillation counting.
The percent hydrolysis is calculated by the following equation: [formula]

Assay [1] concerns synthesis of arachidonic acid by murine peritoneal macrophages. Briefly: inhibition of arachidonic acid (AA) synthesis by murine peritoneal macrophages. The class given is cell-based, CD-1 mice. To be noted: compounds at 10 μm (so in the source). How it is done:
(§2) The ability of the compounds of the invention to inhibit both leukotriene and prostaglandin synthesis is examined in an assay which measures the ability of the compounds of the invention to inhibit the synthesis of arachidonic acid, PGE2 and LTC4 by murine peritoneal macrophages.
as §1
(§3) Macrophages are removed from the peritoneal cavity of 55-57 day old CD-1 mice (killed by CO2 asphyxiation) by peritoneal lavage and centrifuged at 400×g for ten minutes. The cells are resuspended in Medium 199 and 4×10^6 cells are allowed to adhere on 35×10 mm Petri dishes for 1.5 hours at 37° C. in an atmosphere of 95% air and 5% CO2. The cell monolayers are washed and incubated overnight in Medium 199 supplemented with 10% heat inactivated bovin serum containing 1 μCi[^14 C]-arachidonic acid, or in the absence of ^14 C-arachidonic acid when the supernatant is to be assayed by radioimmunoassay (RIA). The labeled cells are then washed and incubated at 37° C. for 2 hours in Medium 199 with the prostaglandin stimuli, zymosan, or 12-o-tetradecanoyl-phorbol-13-acetate (TPA) and in the presence or absence of test compounds. Following incubation, the supernatant is removed and subjected to radioimmunoassay in order to determine the percent inhibition of arachidonic acid, prostaglandin E2 and leukotriene C4 by the test compounds.

The test system of assay [2] is lipoxygenase and/or cyclooxygenase pathways of arachidonic acid. In words: in vivo arachidonic acid (AA)-induced murine ear edema test. The arrangement: species or system Swiss Webster female mice. The following applies: 1 mg/ear, 30 minutes prior to AA, ears measured after 1 hour. From the text: (§4) The ability of the compounds of the invention to inhibit the lipoxygenase and/or cyclooxygenase pathways of arachidonic acid is examined in the in vivo arachidonic acid (AA)-/12-O-tetradecanoylphorbol acetate (TPA)-induced murine ear edema test.
According to this test, Swiss Webster female mice (Buckshire), approximately 8 weeks old, are placed into plastic boxes in groups of six. Eight groups of mice receive AA topically on the right ear, and another 8 groups receive TPA topically on the right ear. AA and TPA are dissolved in acetone at concentrations of 100 mg/ml ad 100 μg/ml respectively. The phlogistics are applied to the right ear by the means of an automatic pipet. Volumes of 10 μl are applied to the inner and outer surfaces of the ear. Each mouse receives either 2 mg/ear AA or […] TPA. The left ear (control) receives acetone delivered in the same manner. […]
(§5) Measurements are taken with Oditest calipers, 0-10 mm with 0.01 graduations. The right and left ears are measured after 1 hour AA-induced inflammation and 4 hours after TPA-induced inflammation.
(§6) The difference between right and left ear thickness is calculated and the significance is determined by a one way analysis of variance with Dunnett's comparisons to control (P=0.05). Drug effects are expressed as a percent change from control values: [formula]

The subject of assay [3] is synthesis of PGE2 by murine peritoneal macrophages. In words: inhibition of PGE2 synthesis by murine peritoneal macrophages. The class given is cell-based, CD-1 mice. To be noted: compounds at 10 μm (so in the source). Here is the method: as §2, §1, §3
For assay [4], the system named is synthesis of LTC4 by murine peritoneal macrophages. In words: inhibition of LTC4 synthesis by murine peritoneal macrophages. In kind it is cell-based, CD-1 mice. The following applies: compounds at 10 μm (so in the source). Here is the method: as §2, §1, §3
The subject of assay [5] is lipoxygenase and/or cyclooxygenase pathways of arachidonic acid. Briefly: in vivo 12-O-tetradecanoylphorbol acetate (TPA)-induced murine ear edema test. Details: species or system Swiss Webster female mice. The following applies: 30 minutes after TPA, ears measured after 4 hours; for % Change from Control, TOPICAL TPA: 1 mg/ear; for % Change from Control, ORAL TPA: 100 mg/kg.
Source text: as §4
According to this test, Swiss Webster female mice (Buckshire), approximately 8 weeks old, are placed into plastic boxes in groups of six. Eight groups of mice receive AA topically on the right ear, and another 8 groups receive TPA topically on the right ear. AA and TPA are dissolved in acetone at concentrations of 100 mg/ml ad 100 μg/ml respectively. The phlogistics are applied to the right ear by the means of an automatic pipet. Volumes of 10 μl are applied to the inner and outer surfaces of the ear. Each mouse receives either 2 mg/ear AA or 4 μg/ear TPA. The left ear (control) receives acetone delivered in the same manner. Oral and topical dosing regimens are as follows: (1) drugs are given 30 minutes prior to AA treatment, and (2) drugs are given 30 minutes after treatment with TPA.
as §5, §6

The mark [6] stands for this setting: compounds of the invention, Table 1, read-out: IC50 (inhibition of PLA2).

Read-outs that look alike come from different tables or passages of the source.

Consider `CCCCCCCCCCCCNC(=O)OCCCCCCN(C)C` [Example 1, Dodecylcarbamic acid 6-(dimethylamino)hexyl ester], for which the inhibition (in general, the change of the read-out against control, counted positive when it falls) at 100 µM against human platelet PLA2 came out at 100%.
On to `CCCCCCCCCCCCCCCCNC(=O)OCCCCCCN(C)C` [Example 2, Hexadecylcarbamic acid 6-(dimethylamino)hexyl ester], for which the “Mean % Inhibition ± S.E., AA” value in assay [1] amounted to 36.92 ± 6.29%. For the same compound, the “% Change from Control, TOPICAL AA” value in assay [2] is -29%. The “Mean % Inhibition ± S.E., PGE2” value in assay [3] was determined as 81.18 ± 2.06%. Also, the “Mean % Inhibition ± S.E., LTC4” value in assay [4] is recorded as 81.00 ± 1.79%. In addition, the inhibition at 100 µM on human platelet PLA2 was found to be 100%. Further, the half-maximal inhibitory concentration (IC50) – broadly, the concentration at which inhibition is half-maximal – on human platelet PLA2 (setting [6]) is 30 µM. Moreover, in assay [5], the “% Change from Control, TOPICAL TPA” value was -42%.
The compound `CCCCCCCCCCCCCCCCNC(=O)OCCCN(C)C` [Example 3, Hexadecylcarbamic acid 3-(dimethylamino)propyl ester] registered an inhibition at 100 µM against human platelet PLA2 of 100%.
Regarding `CCCCCCCCCCCCCCC(=O)NCCCN(C)C` [Example 4, N-[3-(dimethylamino)propyl]pentadecanamide], the “Mean % Inhibition ± S.E., AA” value in assay [1] is recorded as 34.12 ± 5.58%. In assay [3], the “Mean % Inhibition ± S.E., PGE2” value is given as 48.62 ± 9.32%. The “Mean % Inhibition ± S.E., LTC4” value in assay [4] was determined as 91.95 ± 2.57%. For the same compound, at 100 µM the inhibition at human platelet PLA2 was 100%. Also, on human platelet PLA2 (setting [6]), the concentration for half-maximal inhibition (IC50) worked out at 6.8 µM. Besides, in assay [5], the “% Change from Control, ORAL TPA” value is on record as -60% and the “% Change from Control, TOPICAL TPA” value is -48%.
In the case of `CCCCCCNC(=O)OCCCCCCN(C)C` [Example 5, Hexylcarbamic acid 6-(dimethylamino)hexyl ester], testing at 100 µM on human platelet PLA2 gave an inhibition of 11%.
Same read-out and setting: to `CCCCCCCCCCCCCCCCNC(=O)NCCCN(C)C` [Example 6, N-[3-(dimethylamino)propyl]-N'-hexadecylurea] belongs 100%; to `CCCCCCCCCCCCCCCCS(=O)(=O)NCCCCCCCN(CC)CC` [Example 7], 94.4%.
On the same count and under the same terms, to `CCCCCCCCCCCCCC(=O)NN(C)C` [Example 8, Tetradecanoic acid 2,2-dimethylhydrazide] belongs 55.9%.
Consider `CCCCCCCCCCCCCC(=O)N1CC(C)NC(C)C1` (stereo not shown) [Example 9, 3,5-Dimethyl-1-(1-oxotetradecyl)piperazine], for which the “Mean % Inhibition ± S.E., AA” value in assay [1] is given as 50.42 ± 2.50%. The “Mean % Inhibition ± S.E., PGE2” value in assay [3] worked out at 73.50 ± 8.20%. In addition, the “Mean % Inhibition ± S.E., LTC4” value in assay [4] came out at 82.15 ± 2.48%. At human platelet PLA2, this compound showed an inhibition at 100 µM of 100%. In addition, the IC50 on human platelet PLA2 (setting [6]) was determined as 8.5 µM. Besides, in assay [5], the “% Change from Control, ORAL TPA” value is reported as -25% and the “% Change from Control, TOPICAL TPA” value was -55%.
“Gold Sodium Thiomalate [reference compound]”: the IC50 at human platelet PLA2 (standard drugs, read-out: Inhibition of PLA2 Activity IC50) was determined as 43 µM.
